Measurements as given in patent US20080119549A1, “METABOLICALLY-[…] FATTY ACID AMIDE HYDROLASE” (N.V. Organon, priority 2006, published 2008).

Key:
FAAH = biological target: T1, FAAH (Homo sapiens, UniProt O00519); assay: FAAH LC-MS/MS screening assay (anandamide hydrolysis by human liver microsomes); conditions: inhibitor at 30 nM, 60 minute incubation at 37° C.
T1 sequence (O00519 1-579): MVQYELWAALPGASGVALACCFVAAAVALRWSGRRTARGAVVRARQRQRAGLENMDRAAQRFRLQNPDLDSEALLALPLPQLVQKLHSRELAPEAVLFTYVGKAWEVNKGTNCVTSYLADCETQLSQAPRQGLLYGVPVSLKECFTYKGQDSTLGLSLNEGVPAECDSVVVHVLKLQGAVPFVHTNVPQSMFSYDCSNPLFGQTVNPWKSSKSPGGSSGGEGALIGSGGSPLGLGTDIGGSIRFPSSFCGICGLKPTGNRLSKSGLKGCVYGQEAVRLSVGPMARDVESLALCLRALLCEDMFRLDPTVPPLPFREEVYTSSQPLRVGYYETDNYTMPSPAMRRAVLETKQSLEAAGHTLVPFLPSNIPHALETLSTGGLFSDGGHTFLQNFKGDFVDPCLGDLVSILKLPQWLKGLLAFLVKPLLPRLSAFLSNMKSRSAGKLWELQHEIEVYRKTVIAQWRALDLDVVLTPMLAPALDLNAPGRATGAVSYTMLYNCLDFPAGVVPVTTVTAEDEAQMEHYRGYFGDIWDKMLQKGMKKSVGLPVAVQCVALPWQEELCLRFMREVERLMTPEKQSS
Procedure: The following are combined in a 5-mL glass tube: anandamide (5 μL of 200 ug/mL), 960 μL of 50 mM ammonium phosphate buffer (pH 7.4) containing 0.125% BSA (w/v), 10 μL of DMSO without (control) or with a FAAH inhibitor (1 μg/mL), and 25 μL of human liver microsomes (31.3/g). Prior to incubation, a 100 μL aliquot is transferred to a 96-well plate containing 0.25 mL of acetonitrile and D4 (deuterated) anandamide (0.2 #M). Each 5-mL tube is capped and placed in a shaking water bath maintained at 37° C. for 60 minutes. After a 60 minute incubation, a second 100 μL aliquot is transferred to a 96-well plate as performed earlier. The 96-well plate is then capped, vortex mixed, and placed on an HPLC for liquid chromatography/tandem mass spectrometry (LC/MS/MS) analyses. HPLC is carried out on a Waters 2790 Alliance system (Milford, Mass.). […] The samples are analyzed using an electrospray probe in the positive ionization mode with the cone voltage set at 40 V and capillary at 3.2 kV. […] An area ratio response (anandamide area response/D4 anandamide area response) was determined for each sample. Percent anandamide hydrolysis of each sample is determined by the following equation, [(T=0 response)−(T=60 response)/T=0 response]*100. The percent hydrolysis normalized to control is determined by dividing the % hydrolysis of test sample by the % hydrolysis of the control sample.

[1] = Metabolic stability in human liver S9 fractions (half-life in vitro); format: in vitro ADME; conditions: pH 7.2, Human S9 ½ life in-vitro, read-out: half-life in human S9 cells
Procedure: Generally, a FAAH inhibitor was incubated in human liver S9 fractions. Incubations were conducted at 37° C. in a potassium phosphate buffer (pH 7.2). NADPH and a regenerating system consisting of NADP, glucose 6-phosphate dehydrogenase were provided to the incubates. Incubations were terminated by the addition of methanol and freezing at −80° C. See, e.g., Singh, R. et al. Rapid Commun. Mass Spectrom., 10: 1019-26 (1996).

| SMILES | anandamide hydrolysis compared to the control (FAAH) | half-life [1] |
| --- | --- | --- |
| CC1(C)CCC(NC(=O)Oc2cccc(-c3cccc(C(N)=O)c3)c2)CC1 [Example 1, (4,4-dimethylcyclohexyl)carbamic acid 3′carbamoylbiphenyl-3-yl ester] | < 50% | – |
| NC(=O)c1cccc(-c2cccc(OC(=O)NC3CCCCC3)c2)c1 [KDS-4103] | 30% | ~30 min |
